Experimental findings from US7332476B2, “Pyridyl substituted ketolide antibiotics” (Novartis AG, priority 2003, dated 2008) are described below.

Converted amounts (≈) assume the structure as drawn.

Holding throughout (test): MIC, broth microdilution (NCCLS)
In experiment [1] the test system is Staphylococcus epidermidis Step_f50654. It counts as cell-based. The following applies: in µg/mL (unit assumed); for MIC: Table 10, Strain ID D (Table 8): Staphylococcus epidermidis Step_f50654. Summed up:
(§1)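 NCCLS broth microdilution with 2-fold serial drug dilutions (methanol stocks diluted in water); inoculum 3×10^5–7×10^5 CFU/ml in CAMHB, with 2-5% lysed horse blood for S. pneumoniae. Incubation 18-24 h at 35° C., ambient air, except S. pneumoniae (5-10% CO2). MIC is lowest concentration preventing visible growth.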

Experiment [2] concerns Haemophilus influenzae Hain_49247. In kind it is cell-based. The note with it: unit assumed; for MIC: Table 10, Strain ID H (Table 8): Haemophilus influenzae Hain_49247.
Experiment [3] relates to Enterococcus faecalis Enfa_29212. In kind it is cell-based. The note with it: in µg/mL (unit assumed); for MIC: Table 10, Strain ID E (Table 8): Enterococcus faecalis Enfa_29212. The essentials: as §1
The test system of experiment [4] is Streptococcus pneumoniae Stpn_Erm S 4297. It counts as cell-based. The note with it: for MIC: Table 10, Strain ID R (Table 8): Streptococcus pneumoniae Stpn_Erm S 4297. The essentials:
as §1

Experiment [5] concerns Streptococcus pneumoniae Stpn_Mef S 3427. In kind it is cell-based. The following applies: Table 10, Strain ID Q (Table 8): Streptococcus pneumoniae Stpn_Mef S 3427; in µg/mL (unit assumed). Summed up: as §1
Experiment [6] has as its system Staphylococcus epidermidis Step_14990. In kind it is cell-based. The note with it: in µg/mL (unit assumed); for MIC: Table 10, Strain ID C (Table 8): Staphylococcus epidermidis Step_14990. Summed up: as §1
Experiment [7] relates to Staphylococcus aureus Stau_29213. In kind it is cell-based. The note with it: in µg/mL (unit assumed); for MIC: Table 10, Strain ID A (Table 8): Staphylococcus aureus Stau_29213. The essentials: as §1
The subject of experiment [8] is S. pneumoniae Stpn_Erm 6849. In kind it is cell-based, Streptococcus pneumoniae. The note with it: strain ID P; broth microdilution; in µg/mL (unit assumed). Summed up: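 S. pneumoniae MIC by NCCLS broth microdilution in cation-adjusted Mueller-Hinton broth with 2-5% lysed horse blood, inoculum 3×10^5–7×10^5 CFU/ml, 2-fold drug dilutions. Incubated 18-24 hours at 35° C. in 5-10% CO2; MIC is lowest concentration preventing visible growth.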
(In general: In broth dilution the organism is exposed to a series of concentrations in liquid medium.)

For the molecule `CC[C@H]1OC(=O)[C@H](C)C(=O)[C@H](C)[C@@H](O[C@@H]2O[C@H](C)C[C@H](N(C)C)[C@H]2O)[C@](C)(OC)C[C@@H](C)C(=O)[C@H](C)[C@H]2N(CCCCn3cnc(-c4cccnc4)c3)C(=O)O[C@]12C` [Telithromycin, telithromycin, reference compound], the MIC in experiment [1] is 0.1-0.2; in experiment [2], 3.13 µg/mL (≈ 3.85 µM); in experiment [3] it was 0.1-0.2; in experiment [4] it was “=0.1”; in experiment [5] it was 0.1-0.2; in experiment [6], 0.1-0.2. Moreover, in experiment [7], the MIC is 0.1-0.2. In addition, in experiment [1] (strain ID D, broth microdilution), the “MIC, strain ID D” value is 0.1-0.2. In experiment [2] (strain ID H, broth microdilution), this molecule yielded an MIC, strain ID H of 3.13 µg/mL (≈ 3.85 µM). Also, the “MIC, strain ID E” value in experiment [3] (strain ID E, broth microdilution) is 0.1-0.2. The “MIC, strain ID Q” value in experiment [4] (strain ID Q, broth microdilution, in µg/mL (unit assumed)) is reported as 0.1-0.2. Moreover, the “MIC, strain ID C” value in experiment [6] (strain ID C, broth microdilution) is recorded as 0.1-0.2. Also, in experiment [7] (strain ID A, broth microdilution), the “MIC, strain ID A” value is listed as 0.1-0.2. The “MIC, strain ID P” value in experiment [8] is reported as 0.2-0.78.

For the molecule `CC[C@H]1OC(=O)[C@@](C)(F)C(=O)[C@H](C)[C@@H](OC2O[C@H](C)C[C@H](N(C)C)[C@H]2O)[C@@](C)(OC)C[C@@H](C)C(=O)[C@H](C)[C@H]2N(CCCCn3cnc(-c4ccc(C)nc4)c3)C(=O)O[C@]12CC` (some centres unmarked) [XIV], the MIC in experiment [1] was 0.4; in experiment [2], 6.25 µg/mL (≈ 7.28 µM); in experiment [3] it was 0.2; in experiment [4] (unit assumed) it was 0.1 µg/mL (≈ 0.117 µM); in experiment [5] it was 0.1; in experiment [6], 0.2. Besides, in experiment [7], the MIC is on record as 0.2.

`C=C[C@]12OC(=O)N(CCCCn3cnc(-c4ccc(OC)nc4)c3)[C@@H]1[C@@H](C)C(=O)[C@H](C)C[C@](C)(OC)[C@H](OC1O[C@H](C)C[C@H](N(C)C)[C@H]1O)[C@@H](C)C(=O)[C@@H](C)C(=O)O[C@@H]2CC` (some centres unmarked) [XVIII]: the MIC in experiment [1] came out at 0.2; in experiment [2] it was 6.25 µg/mL (≈ 7.32 µM); in experiment [3] it was 0.1; in experiment [4] (unit assumed), 0.1 µg/mL (≈ 0.117 µM); in experiment [5], 0.2; in experiment [6], 0.2. This molecule registered an MIC in experiment [7] of 0.2.

On to `C=C[C@]12OC(=O)N(CCCCn3cnc(-c4ccc(C)nc4)c3)[C@@H]1[C@@H](C)C(=O)[C@H](C)C[C@](C)(OC)[C@H](OC1O[C@H](C)C[C@H](N(C)C)[C@H]1O)[C@@H](C)C(=O)[C@@H](C)C(=O)O[C@@H]2CC` (some centres unmarked) [XVI], for which the MIC is 0.2 in experiment [1]; 6.25 µg/mL (≈ 7.46 µM) in experiment [2]; 0.1 in experiment [3]; “=0.05” in experiment [4]; 0.1 in experiment [5]; 0.2 in experiment [6]. The same molecule yielded an MIC in experiment [7] of 0.2.
